Literature values in US11399559B2, “Nutritional products having improved lipophilic solubility and bioavailability in an easily mixable form” (ABBOTT LABORATORIES, priority 2015, dated 2022).
Read-outs that look alike come from different tables or passages of the source.

For `Cc1c(C)c2c(c(C)c1O)CC[C@@](C)(CCC[C@H](C)CCC[C@H](C)CCCC(C)C)O2` [RRR-alpha-tocopherol], the “Biological activity relative to all-rac-alpha-tocopherol” value (accepted nutritional guidelines) is given as 1.36 times and the “Biological activity relative to all-rac-alpha-tocopherol” value (recent studies) is given as “about 2 times”.
